From patent US6867207B2, “IL-5 inhibiting 6-azauracil derivatives” (Janssen Pharmaceutica N.V., priority 1997, dated 2005)

Each molecule was assayed on IL-5 production (assay: In vitro inhibition of IL-5 production in human blood (phytohemagglutinin-stimulated whole blood, ELISA)). Settings: test dose 1×10^−6 M, 48 hours.
Type: cell-based
Method in brief: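 Percent inhibition of IL-5, quantified by ELISA in cell-free supernatants, is given at a single dose of 1×10^−6 M (or 1×10^−5 M). Threefold-diluted human whole blood from healthy men received compound for 60 min at 37° C before 48 h PHA stimulation at 2 μg/mL.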
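Note: values marked with an asterisk were tested at 10 µM and unmarked values at 1 µM.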

Going from `CCOC(=O)c1cnc(SC(c2ccc(Cl)cc2)c2ccc(-n3ncc(=O)[nH]c3=O)cc2Cl)nc1O` (racemic) [Compound 339] to `Nc1ccnc(SC(c2ccc(Cl)cc2)c2ccc(-n3ncc(=O)[nH]c3=O)cc2Cl)n1` (racemic) [Compound 343], the “% inh. (percentage inhibition of IL-5 production)” value rises from 35% to 66%.

Going from `O=c1cnn(-c2cc(Cl)c(C(Sc3ncccn3)c3ccc(Cl)cc3)c(Cl)c2)c(=O)[nH]1` (racemic) [Compound 340] to `Nc1ccnc(SC(c2ccc(Cl)cc2)c2c(Cl)cc(-n3ncc(=O)[nH]c3=O)cc2Cl)n1` (racemic) [Compound 348], the “% inh. (percentage inhibition of IL-5 production)” value falls from 88% to 83%.

First: O=c1cnn(-c2cc(Cl)c(C(Sc3ncccn3)c3ccc(Cl)c(C(F)(F)F)c3)c(Cl)c2)c(=O)[nH]1 (racemic) [Compound 341]
Second: O=c1cnn(-c2cc(Cl)c(C(Sc3cnccn3)c3ccc(Cl)c(C(F)(F)F)c3)c(Cl)c2)c(=O)[nH]1 (racemic) [Compound 401]
The “% inh. (percentage inhibition of IL-5 production)” value of the first is higher: 96% for the first, 92% for the second.

First: O=c1cnn(-c2cc(Cl)c(C(Sc3nccc(-c4ccccc4)n3)c3ccc(Cl)c(C(F)(F)F)c3)c(Cl)c2)c(=O)[nH]1 (racemic) [Compound 342]
Second: O=c1cnn(-c2cc(Cl)c(C(Sc3nc(-c4ccccc4)no3)c3ccc(Cl)c(C(F)(F)F)c3)c(Cl)c2)c(=O)[nH]1 (racemic) [Compound 404]
The “% inh. (percentage inhibition of IL-5 production)” value of the first is higher: 93% for the first, 92% for the second.

Going from `CS(=O)(=O)O.O.O.O=c1cnn(-c2cc(Cl)c(C(Sc3nccc(N4CCOCC4)n3)c3ccc(Cl)cc3)c(Cl)c2)c(=O)[nH]1` (racemic) [Compound 344] to `O=c1cnn(-c2cc(Cl)c(C(Sc3nccc(N4CCOCC4)n3)c3ccc(Cl)cc3)c(Cl)c2)c(=O)[nH]1` (racemic) [Compound 349], the “% inh. (percentage inhibition of IL-5 production)” value rises from 82% to 87%.

Compared with `CN1CCN(c2ccnc(SC(c3ccc(Cl)cc3)c3c(Cl)cc(-n4ncc(=O)[nH]c4=O)cc3Cl)n2)CC1` (racemic) [Compound 345], `CCOC(=O)N1CCN(c2ccnc(SC(c3ccc(Cl)cc3)c3c(Cl)cc(-n4ncc(=O)[nH]c4=O)cc3Cl)n2)CC1` (racemic) [Compound 352] is lower in “% inh. (percentage inhibition of IL-5 production)” value: 88% for the first, 85% for the second.

Going from `CCOC(=O)N1CCC(Nc2ccnc(SC(c3ccc(Cl)cc3)c3c(Cl)cc(-n4ncc(=O)[nH]c4=O)cc3Cl)n2)CC1` (racemic) [Compound 351] to `CN1CCC(Nc2ccnc(SC(c3ccc(Cl)cc3)c3c(Cl)cc(-n4ncc(=O)[nH]c4=O)cc3Cl)n2)CC1.Cl.O` (racemic) [Compound 354], the “% inh. (percentage inhibition of IL-5 production)” value rises from 62% to 70%.

Compared with `CN(C)c1ccnc(SC(c2ccc(Cl)cc2)c2c(Cl)cc(-n3ncc(=O)[nH]c3=O)cc2Cl)n1` (racemic) [Compound 355], `O=c1cnn(-c2cc(Cl)c(C(Sc3nccc(N(CCO)CCO)n3)c3ccc(Cl)cc3)c(Cl)c2)c(=O)[nH]1` (racemic) [Compound 358] is lower in “% inh. (percentage inhibition of IL-5 production)” value: 83% for the first, 63% for the second.

Compared with `O=c1cnn(-c2cc(Cl)c(C(Sc3nccc(NC(CO)CO)n3)c3ccc(Cl)cc3)c(Cl)c2)c(=O)[nH]1` (racemic) [Compound 361], `O=c1cnn(-c2cc(Cl)c(C(Sc3ccncn3)c3ccc(Cl)cc3)c(Cl)c2)c(=O)[nH]1` (racemic) [Compound 409] is higher in “% inh. (percentage inhibition of IL-5 production)” value: 28% for the first, 88% for the second.

Going from `O=c1cnn(-c2cc(Cl)c(C(c3ccc(Cl)cc3)c3csc(-c4ccccc4)n3)c(Cl)c2)c(=O)[nH]1` (racemic) [Compound 363, (±)-2-[3,5-dichloro-4-[(4-chlorophenyl)(2-phenyl-4-thiazoyl)methyl]phenyl]-1,2,4-triazine-3,5(2H,4H)-dione] to `O=c1cnn(-c2cc(Cl)c(C(c3ccc(Cl)cc3)c3csc(-c4ccccc4F)n3)c(Cl)c2)c(=O)[nH]1` (racemic) [Compound 364], the “% inh. (percentage inhibition of IL-5 production)” value rises from 91% to 95%.

Going from `Cc1sc(-c2ccccc2)nc1C(c1ccc(Cl)cc1)c1c(Cl)cc(-n2ncc(=O)[nH]c2=O)cc1Cl` (racemic) [Compound 365] to `Cc1sc(-c2cccc(F)c2)nc1C(c1ccc(Cl)cc1)c1c(Cl)cc(-n2ncc(=O)[nH]c2=O)cc1Cl` (racemic) [Compound 370], the “% inh. (percentage inhibition of IL-5 production)” value falls from 88% to 76%.

Compared with `Cl.O.O=c1cnn(-c2cc(Cl)c(C(c3ccc(Cl)cc3)c3csc(-c4ccncc4)n3)c(Cl)c2)c(=O)[nH]1` (racemic) [Compound 366], `O=c1cnn(-c2cc(Cl)c(C(c3ccc(Cl)cc3)c3csc(-c4cccnc4)n3)c(Cl)c2)c(=O)[nH]1` (racemic) [Compound 375] is lower in “% inh. (percentage inhibition of IL-5 production)” value: 93% for the first, 91% for the second.

Going from `O=c1cnn(-c2cc(Cl)c(C(c3ccc(Cl)cc3)c3csc(-c4ccccc4Cl)n3)c(Cl)c2)c(=O)[nH]1` (racemic) [Compound 367] to `Cc1ccccc1-c1nc(C(c2ccc(Cl)cc2)c2c(Cl)cc(-n3ncc(=O)[nH]c3=O)cc2Cl)cs1` (racemic) [Compound 374], the “% inh. (percentage inhibition of IL-5 production)” value rises from 74% to 94%.

`O=c1cnn(-c2cc(Cl)c(C(c3ccc(Cl)cc3)c3csc(-c4cccc(F)c4)n3)c(Cl)c2)c(=O)[nH]1` (racemic) [Compound 368] and `O=c1cnn(-c2cc(Cl)c(C(c3ccc(Cl)cc3)c3csc(-c4cccc(Cl)c4)n3)c(Cl)c2)c(=O)[nH]1` (racemic) [Compound 371] are the same in “% inh. (percentage inhibition of IL-5 production)” value: 88% for the first, 88% for the second.

Going from `Cc1nc(C(c2ccc(Cl)cc2)c2ccc(-n3ncc(=O)[nH]c3=O)cc2Cl)c(-c2ccccc2)s1` (racemic) [Compound 369] to `O=c1cnn(-c2ccc(C(c3ccc(Cl)cc3)c3nc(-c4ccccc4)sc3-c3ccccc3)c(Cl)c2)c(=O)[nH]1` (racemic) [Compound 373], the “% inh. (percentage inhibition of IL-5 production)” value falls from 66% to 40%.

Going from `Cc1cccc(-c2nc(C(c3ccc(Cl)cc3)c3c(Cl)cc(-n4ncc(=O)[nH]c4=O)cc3Cl)cs2)c1` (racemic) [Compound 372] to `O=c1cnn(-c2cc(Cl)c(C(Sc3nc(-c4ccccc4)no3)c3ccc(Cl)cc3)c(Cl)c2)c(=O)[nH]1` (racemic) [Compound 408], the “% inh. (percentage inhibition of IL-5 production)” value rises from 86% to 88%.

Going from `CC(=O)Nc1ccc(SC(c2ccc(Cl)c(C(F)(F)F)c2)c2c(Cl)cc(-n3ncc(=O)[nH]c3=O)cc2Cl)cc1` (racemic) [Compound 398] to `Cc1sc(SC(c2ccc(Cl)c(C(F)(F)F)c2)c2c(Cl)cc(-n3ncc(=O)[nH]c3=O)cc2Cl)nc1-c1ccccc1` (racemic) [Compound 405], the “% inh. (percentage inhibition of IL-5 production)” value falls from 96% to 80%.

Compared with `O=c1cnn(-c2cc(Cl)c(C(Sc3nc(-c4ccco4)cs3)c3ccc(Cl)c(C(F)(F)F)c3)c(Cl)c2)c(=O)[nH]1` (racemic) [Compound 399], `O=c1cnn(-c2cc(Cl)c(C(Sc3nc4cc(Cl)ccc4s3)c3ccc(Cl)c(C(F)(F)F)c3)c(Cl)c2)c(=O)[nH]1` (racemic) [Compound 402] is lower in “% inh. (percentage inhibition of IL-5 production)” value: 93% for the first, 90% for the second.

First: O=c1cnn(-c2cc(Cl)c(C(SCc3cnccn3)c3ccc(Cl)cc3)c(Cl)c2)c(=O)[nH]1 (racemic) [Compound 407]
Second: O=c1cnn(-c2cc(Cl)c(C(Nc3nc(-c4ccccc4)cs3)c3ccc(Cl)c(C(F)(F)F)c3)c(Cl)c2)c(=O)[nH]1 (racemic) [Compound 411]
The “% inh. (percentage inhibition of IL-5 production)” value of the first is lower: 71% for the first, 94% for the second.

Same assay, conditions: test dose 1×10^−6 M, 48 hours, read-out: % inh. (percentage inhibition of IL-5 production)

Compared with `O=c1cnn(-c2cc(Cl)c(C(Sc3nccc(NCCO)n3)c3ccc(Cl)cc3)c(Cl)c2)c(=O)[nH]1` (racemic) [Compound 357, (±)-2-[3,5-dichloro-4-[(4-chlorophenyl)[[4-[(2-hydroxyethyl)amino]-2-pyrimidinyl]-thio]methyl]phenyl]-1,2,4-triazine-3,5(2H,4H)-dione], `O=c1cnn(-c2cc(Cl)c(C(Sc3nccc(N4CCNCC4)n3)c3ccc(Cl)cc3)c(Cl)c2)c(=O)[nH]1` (racemic) [Compound 360, (±)-2-[3,5-dichloro-4-[(4-chlorophenyl)[[4-(1-piperazinyl)-2-pyrimidinyl]thio]methyl]phenyl]-1,2,4-triazine-3,5(2H,4H)-dione monohydrate] is higher in inhibition at 1 µM: 69% for the first, 84% for the second.

Compared with `O=c1cnn(-c2cc(Cl)c(C(Sc3[nH]c(=S)[nH]c3-c3ccccc3)c3ccc(Cl)c(C(F)(F)F)c3)c(Cl)c2)c(=O)[nH]1` (racemic) [Compound 400, (±)-2-[3,5-dichloro-4-[[4-chloro-3-(trifluoromethyl)phenyl][(2,3-dihydro-5-phenyl-2-thioxo-1H-imidazol-4-yl)thio]-methyl]phenyl]-1,2,4-triazine-3,5(2H,4H)-dione], `O=c1cnn(-c2cc(Cl)c(C(Sc3nnc(-c4ccccc4)o3)c3ccc(Cl)cc3)c(Cl)c2)c(=O)[nH]1` (racemic) [Compound 406, (±)-2-[3,5-dichloro-4-[(4-chlorophenyl)[(5-phenyl-1,3,4-oxadiazol-2-yl)thio]methyl]phenyl]-1,2,4-triazine-3,5(2H,4H)-dione] is higher in inhibition at 1 µM: 76% for the first, 84% for the second.

`O=c1cnn(-c2ccc(C(Nc3nc4cccnc4s3)c3ccc(Cl)cc3)c(Cl)c2)c(=O)[nH]1` (racemic) [Compound 410, (±)-2-[3-chloro-4-[(4-chlorophenyl)[(thiazolo[5,4-b]pyridin-2-yl)amino]methyl]phenyl]-1,2,4-triazine-3,5(2H,4H)-dione] was tested, and the inhibition at 1 µM was 15%.
